Entries after “also recorded” stand apart in the source; their conditions may differ. Read-outs that look alike come from different tables or passages of the source.
Assays:
class I HKs = tested on: class I HKs; parameters: method as in PMID 27999439; conditions: including WalK, PhoQ, EnvZ, and CpxA; cited from earlier work
[1] = target: T1, WalK (207-611, B. subtilis) (Bacillus subtilis, UniProt Q45614); test: Affinity selection/mass spectrometry, competition with waldiomycin; format: binding; parameters: key to AS/MS: AS/MS + competitive inhibition of the binding of waldiomycin to WalK; − increased binding of waldiomycin to WalK
T1 construct: His6 (N); made in house; host or cells: E. coli BL21(DE3)
T1 sequence (Q45614 207-611): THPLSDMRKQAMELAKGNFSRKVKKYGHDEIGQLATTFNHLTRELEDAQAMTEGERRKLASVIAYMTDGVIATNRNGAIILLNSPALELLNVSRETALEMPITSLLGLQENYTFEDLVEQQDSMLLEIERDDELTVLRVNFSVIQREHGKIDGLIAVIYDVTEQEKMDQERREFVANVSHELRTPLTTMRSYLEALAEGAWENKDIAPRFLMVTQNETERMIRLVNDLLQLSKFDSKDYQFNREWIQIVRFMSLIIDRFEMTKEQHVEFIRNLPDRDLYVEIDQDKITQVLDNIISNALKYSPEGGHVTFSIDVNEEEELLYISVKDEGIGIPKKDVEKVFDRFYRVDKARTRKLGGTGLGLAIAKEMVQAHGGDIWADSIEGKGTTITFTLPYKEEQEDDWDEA
Description: The affinity selection/mass spectrometry (AS/MS) is a method which can detect the binding of small compounds to proteins. This experiment was carried out following a previously established protocol (Fig. 5), with the exception of using Millipore 96-well filter plates (MSBVN1210) instead of MAHAN4510. In the experiment, 1 µM of WalK (207-611, B. subtilis, refer to Table S2) was combined and incubated with 5 µM of waldiomycin and competitor compounds in a reaction buffer. The buffer composition was as follows: 25 mM Tris-HCl (pH 8.0), 50 mM KCl, 50 mM NH4Cl, 5 mM MgCl2, 1 mM DTT, and 0.1% CHAPS. Following the incubation, the mixture was subjected to size-exclusion chromatography via centrifugation to eliminate free compounds. The protein that was eluted was then denatured by adding an equal volume of methanol/0.1% formic acid. The compounds that were subsequently released from the protein were detected using an LC/MS system. The concentrations of waldiomycin were calculated from the value of peak areas using calibration curve that covered the range of 1 nM to 1 µM (R^2 = 0.9991). The concentration of waldiomycin in the eluate of WalK and waldiomycin without competitor was 10.1 nM, and percentages to this value were calculated for other samples.

CpxA = target: T2, CpxA (Escherichia coli, UniProt P0AE82); test: Inhibition of CpxA autophosphorylation; format: biochemical, Escherichia coli K12
T2 construct: cytoplasmic regions of PhoQ (261-486) and CpxA (188-457); His6 (C); made in house; host or cells: E. coli BL21(DE3)
T2 sequence (P0AE82 188-457): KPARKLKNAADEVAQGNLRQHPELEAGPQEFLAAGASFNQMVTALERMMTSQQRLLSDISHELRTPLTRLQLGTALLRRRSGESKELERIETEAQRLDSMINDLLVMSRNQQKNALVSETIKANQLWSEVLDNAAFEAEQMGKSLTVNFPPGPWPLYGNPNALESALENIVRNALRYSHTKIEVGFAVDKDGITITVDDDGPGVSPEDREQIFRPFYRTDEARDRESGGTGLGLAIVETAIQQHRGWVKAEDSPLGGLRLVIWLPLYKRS
Description: (§1) The total reaction volume was 40 µl, and the incubation lasted for 30 min at 25 °C. To terminate the reaction, 40 µl of 2 × SDS-PAGE sample buffer was added, followed by a 10-min incubation at 37 °C. Subsequently, SDS-PAGE (10% acrylamide) was performed, and the samples were subjected to Western blotting using a PVDF membrane (Bio-Rad 1620177). The primary antibody used was anti-N3-phosphohistidine antibody (clone SC56-2) (EDM Millipore Corp), and the secondary antibody was goat anti-rabbit IgG-HRP (Abcam). A 2% bovine serum albumin (Sigma-Aldrich) solution served as the blocking reagent. Signals originating from phosphorylated HKs were detected using the HRP substrate (Immobilon Western Chemiluminescent HRP substrate, Millipore) and the Multi Imager II Multi Box (Bio Tools). Signal intensities were quantified with Image Analysis Software CS Analyzer 4 (ATTO). IC50 values (50% inhibitory concentrations) were determined using Prism 7 software (GraphPad).
In the assessment of naphthoquinone derivatives, the initial screening for inhibitory activity against WalK autophosphorylation was conducted at 50 or 100 µg ml^−1. Compounds displaying inhibitory activity were further examined to ascertain their IC50 values against WalK. For the chosen compounds, inhibition against EvgS, EnvZ, PhoQ, and CpxA HKs was also assessed. […]

WalK [2] = target: T3, WalK (Bacillus subtilis, UniProt Q45614); test: Inhibition of WalK autophosphorylation; format: biochemical; parameters: key to WalK: WalK + inhibitory effect against WalK; conditions: for IC50: against WalK from B. subtilis, autophosphorylation, N.I. = no inhibition, read-out: IC50
T3 construct: His6 (N); made in house; host or cells: E. coli BL21(DE3)
T3 sequence (Q45614 207-611): as the sequence (Q45614 207-611) above
Description: as §1, with “Autophosphorylation of WalK was conducted at 0.5 or 1 µM in a reaction mixture comprising 50 mM Tris-HCl (pH 8.5), 100 mM KCl, 5 mM MgCl2, 100 mM NH4Cl, 5% DMSO, and 40 µM ATP. The total” for “The total”
(§2) In the assessment of naphthoquinone derivatives, the initial screening for inhibitory activity against WalK autophosphorylation was conducted at 50 or 100 µg ml^−1. Compounds displaying inhibitory activity were further examined to ascertain their IC50 values against WalK. For the chosen compounds, inhibition against EvgS, EnvZ, PhoQ, and CpxA HKs was also assessed. These reactions involved the use of 1 µM HK, 40 µM ATP, and a 30 min incubation at 25 °C.

B. subtilis 168 strain [3] = tested on: B. subtilis 168 strain; parameters: method as in PMID 27999439, PMID 28674376, PMID 26582287; key: MIC + antibacterial activity against Bacillus subtilis 168; conditions: Bacillus subtilis 168, cited from earlier work
[4] = tested on: HKs (EvgS, EnvZ, PhoQ, and CpxA); parameters: key: HKs + inhibitory effect against HKs (EvgS, EnvZ, PhoQ, and CpxA); conditions: summary class; cited from earlier work
PhoQ = target: T4, PhoQ (Escherichia coli, UniProt P23837); test: Inhibition of PhoQ autophosphorylation; format: biochemical, Escherichia coli K12
T4 construct: cytoplasmic regions of PhoQ (261-486) and CpxA (188-457); His6 (C); made in house; host or cells: E. coli BL21(DE3)
T4 sequence (P23837 261-486): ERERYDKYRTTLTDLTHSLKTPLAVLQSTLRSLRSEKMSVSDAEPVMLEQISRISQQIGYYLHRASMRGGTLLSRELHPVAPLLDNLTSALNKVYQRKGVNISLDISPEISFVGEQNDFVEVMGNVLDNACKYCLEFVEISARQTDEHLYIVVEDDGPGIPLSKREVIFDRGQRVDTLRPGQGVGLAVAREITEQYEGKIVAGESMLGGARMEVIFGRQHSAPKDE
Description: as §1, with “Autophosphorylation of WalK was conducted at 0.5 or 1 µM in a reaction mixture comprising 50 mM Tris-HCl (pH 8.5), 100 mM KCl, 5 mM MgCl2, 100 mM NH4Cl, 5% DMSO, and 40 µM ATP. The total” for “The total”
as §2

WalK [5] = target: T3, WalK; parameters: key: WalK + inhibitory effect against WalK; conditions: summary class; cited from earlier work
B. subtilis 168 strain [6] = test: MIC, standard microtiter broth dilution; format: cell-based, Bacillus subtilis; parameters: key to MIC: MIC + antibacterial activity against Bacillus subtilis 168
Description: The minimum inhibitory concentrations (MICs) were determined using the standard microtiter broth dilution method, as recommended by the guidelines of the Clinical Laboratory Standards Institute.

EvgS (559–1197) D1009A = target: T5, EvgS (559–1197) D1009A (Escherichia coli, UniProt P30855, D1009A); test: Inhibition of EvgS autophosphorylation; format: biochemical, Escherichia coli K12
T5 construct: EvgS (559–1197) D1009A; His6 (C); made in house; host or cells: E. coli BL21(DE3)
T5 sequence (P30855 559-1197 D1009A): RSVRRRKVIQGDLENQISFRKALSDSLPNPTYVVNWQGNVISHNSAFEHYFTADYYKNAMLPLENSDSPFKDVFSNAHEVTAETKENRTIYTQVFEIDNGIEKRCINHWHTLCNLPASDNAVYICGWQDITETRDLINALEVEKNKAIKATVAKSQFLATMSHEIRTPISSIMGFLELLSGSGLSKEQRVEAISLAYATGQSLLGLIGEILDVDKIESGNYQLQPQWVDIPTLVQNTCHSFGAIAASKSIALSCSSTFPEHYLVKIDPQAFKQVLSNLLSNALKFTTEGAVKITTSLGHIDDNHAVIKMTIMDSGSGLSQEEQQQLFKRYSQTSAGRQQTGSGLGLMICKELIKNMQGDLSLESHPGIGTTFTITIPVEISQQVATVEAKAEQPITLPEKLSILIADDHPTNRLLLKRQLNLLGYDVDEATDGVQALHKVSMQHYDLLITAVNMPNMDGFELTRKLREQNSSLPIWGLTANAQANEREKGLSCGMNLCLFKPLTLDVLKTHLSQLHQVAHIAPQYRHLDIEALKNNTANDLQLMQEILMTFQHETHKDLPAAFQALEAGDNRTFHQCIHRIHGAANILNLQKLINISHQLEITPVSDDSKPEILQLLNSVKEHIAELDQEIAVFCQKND
Description: as §1, with “Autophosphorylation of WalK was conducted at 0.5 or 1 µM in a reaction mixture comprising 50 mM Tris-HCl (pH 8.5), 100 mM KCl, 5 mM MgCl2, 100 mM NH4Cl, 5% DMSO, and 40 µM ATP. The total” for “The total”
as §2

iseA (formerly yoeB) [7] = tested on: iseA (formerly yoeB); parameters: method as in PMID 27999439, PMID 28674376, PMID 26582287; key: RT-qPCR + iseA gene expression was induced in B. subtilis 168; − no effect; conditions: summary class, iseA gene expression; cited from earlier work
EnvZ = target: T6, EnvZ (Escherichia coli, UniProt P0AEJ4); test: Inhibition of EnvZ autophosphorylation; format: biochemical, Escherichia coli K12
T6 construct: pETEcEnvZ(223-450); His6 (C); made in house; host or cells: E. coli BL21(DE3)
T6 sequence (P0AEJ4 223-450): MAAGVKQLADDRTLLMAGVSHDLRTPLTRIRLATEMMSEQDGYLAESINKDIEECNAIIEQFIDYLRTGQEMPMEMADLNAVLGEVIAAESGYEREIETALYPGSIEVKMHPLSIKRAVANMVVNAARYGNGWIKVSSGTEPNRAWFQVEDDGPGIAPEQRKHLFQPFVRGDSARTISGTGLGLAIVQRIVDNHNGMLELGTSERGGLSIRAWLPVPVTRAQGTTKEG
Description: as §1, with “Autophosphorylation of WalK was conducted at 0.5 or 1 µM in a reaction mixture comprising 50 mM Tris-HCl (pH 8.5), 100 mM KCl, 5 mM MgCl2, 100 mM NH4Cl, 5% DMSO, and 40 µM ATP. The total” for “The total”
as §2

[8] = tested on: HKs (EvgS, EnvZ, PhoQ, and CpxA); test: Inhibition of class I HKs, summary over several HKs; format: biochemical, Escherichia coli K12; parameters: key to HKs: HKs + inhibitory effect against HKs (EvgS, EnvZ, PhoQ, and CpxA)
Description: as §1, with “Autophosphorylation of WalK was conducted at 0.5 or 1 µM in a reaction mixture comprising 50 mM Tris-HCl (pH 8.5), 100 mM KCl, 5 mM MgCl2, 100 mM NH4Cl, 5% DMSO, and 40 µM ATP. The total” for “The total”
as §2

iseA (formerly yoeB) [9] = test: RT-qPCR of iseA expression in B. subtilis cells; format: cell-based, B. subtilis 168; parameters: key to RT-qPCR: RT-qPCR + iseA gene expression was induced in B. subtilis 168; − no effect
Description: In brief, the cells were aerated and grown to an optical density at 660 nm of 0.3–0.4 at 37 °C. After the addition of DMSO or naphthoquinone derivatives, the cultures were further incubated for 5 min, cooled on ice for 1 min, and then harvested by centrifugation (2300 × g, 10 min, 4 °C). The cells were resuspended in 800 µl of RNA Lysis Buffer (SV Total RNA Isolation System, Z3100, Promega), transferred to a screw-capped tube containing 400 mg of glass beads (GB-01, TOMY), and disrupted using MicroSmash (MS-100, TOMY Medico) at 3000 rpm, 60 s ON/OFF for 6 cycles. RNA was then purified from 175 µl of the supernatant using the SV Total RNA Isolation System, followed by DNase I treatment (Turbo DNA-free^TM Kit, AM1907, Invitrogen) to remove any residual genomic DNA contamination. […] The expression levels of the genes were normalized using the 16S rRNA gene as an internal standard. Each assay was performed at least three times. Statistical analyses were conducted using Tukey’s multiple comparison test (GraphPad Prism 7).

[10] = Bacillus subtilis, B. subtilis 168 strain grown in LB broth at 37 °C for 18 h, read-out: MIC

C[C@@H]1O[C@](C)(C(=O)O)OC1/C=C/C=C/C=C/C(=O)O[C@H]1CC[C@H](c2ccc3c(c2O)C(=O)c2ccc4c(c2C3=O)C(=O)[C@@H](O)[C@](C)(O)C4)O[C@@H]1C (stereo partly shown) [Waldiomycin, reference compound]
inhibition of class I HKs (class I HKs): inhibited 13 class I HKs
concentration of waldiomycin in the eluate of WalK and waldiomycin ([1]; without competitor, WalK 1 µM, waldiomycin 5 µM): 10.1 nM
IC50 (CpxA): 93.9 µM
IC50 (WalK [2]): 13.1 µM
MIC (B. subtilis 168 strain [3]): 8 µg/mL
MIC (B. subtilis 168 strain [3]; summary class): +
HKs [4]: +
IC50 (PhoQ): 10.9 µM
WalK (WalK [5]): +
MIC (B. subtilis 168 strain [6]; [10]): 8 µg/mL
IC50 (EvgS (559–1197) D1009A): 66.8 µM
RT-qPCR (iseA (formerly yoeB) [7]): +
IC50 (EnvZ): 33.1 µM

Nc1cccc2c1C(=O)C(Cl)=C(Nc1ccc(O)c(C(=O)O)c1)C2=O [2o, 5-((5-amino-3-chloro-1,4-dioxo-1,4-dihydronaphthalen-2-yl)amino)-2-hydroxybenzoic acid]
inhibition of EvgS, EnvZ, PhoQ, and CpxA ([8]; in words): inhibited all four of these HKs
HKs ([8]; summary class, EvgS, EnvZ, PhoQ, and CpxA): +
effect on the signal of waldiomycin ([1]; compound 30 and 100 µM, in words): reduced the signal of waldiomycin in a dose-dependent manner
signal of waldiomycin compared to only waldiomycin with WalK ([1]; compound at 100 µM, waldiomycin 5 µM, WalK 1 µM): about 10%
binding to WalK competitive with that of waldiomycin ([1]; in words): competitive; also recorded: competitively interacted with waldiomycin
AS/MS ([1]; summary class, effect on binding of waldiomycin to WalK): +
IC50 (CpxA): 0.8 µM
IC50 (WalK [2]): 25.9 µM
inhibitory activity against WalK (WalK [2]; in words): weaker
WalK (WalK [2]; summary class): +
IC50 (PhoQ): 0.1 µM
MIC (B. subtilis 168 strain [6]; [10]): 16 µg/mL
antibacterial (antimicrobial) activity against B. subtilis (B. subtilis 168 strain [6]; in words): weaker
MIC (B. subtilis 168 strain [6]; summary class, Bacillus subtilis 168): +
IC50 (EvgS (559–1197) D1009A): 0.2 µM
IC50 (EnvZ): 1.3 µM
expression of iseA (iseA (formerly yoeB) [9]; exponentially growing cells, subMIC or MIC levels, 5 min, relative to DMSO control): did not change
RT-qPCR (iseA (formerly yoeB) [9]; summary class, iseA gene expression in B. subtilis 168): −

— paper PMC11284088, “Synthesis and biochemical characterization of naphthoquinone derivatives targeting bacterial histidine kinases” (The Journal of Antibiotics, 2024)
